Laboratory results taken from patent US6825236B2, “Colchicine derivatives” (California Pacific Medical Center, priority 2003, dated 2004).

System: HCT116
Experiment: Cell colony formation assay
Type: cell-based
Details: 72 hours with drug, colonies counted after 7 days
Experimental: This example provides directions for growing cells and testing compounds of the invention for their effect on the growth of the cells. All cells were purchased from DCTDC Tumor Repository, NCI, NIH.
Cell Colony Formation Assay
Four hundred cells (HCT 116, PC-3) or five hundred cells (VM46) were plated in 60 mm Petri dishes containing 2.7 ml of medium (modified McCoy's 5a medium) containing 10% fetal bovine serum and 100 units/ml penicillin and […] streptomycin. The cells were incubated in a CO2 incubator at 37° C. for 5 hours for attachment to the bottom of Petri dishes. Drugs were made fresh in medium at ten times the final concentration, and then 0.3 ml of this stock solution was added to the 2.7 ml of medium in the dish. The cells were then incubated with drugs for 72 hours at 37° C. At the end of the incubation the drug-containing media were decanted, the dishes were rinsed with 4 ml of Hank's Balance Salt Solution (HBSS), 5 ml of fresh medium was added, and the dishes were returned to the incubator for colony formation. The cell colonies were counted using colony counter after incubation for 7 days for HCT116 cells and PC-3 cells and 8 days for VM46 cells, respectively.
Values of ID50 (the drug concentration producing 50% inhibition of colony formation) may be determined for each tested compound. The directions described in this example may be used in other cells, such as DU-145.

| Compound | Survival (%) of HCT116 (100 nM) [%] | Survival (%) of HCT116 (10 nM) [%] | Survival (%) of HCT116 (1 nM) [%] |
| --- | --- | --- | --- |
| CCC(=C(CC)c1ccc(OCC(=O)NC2CCc3cc(OC)c(OC)c(OC)c3-c3ccc(SC)c(=O)cc32)cc1)c1ccc(OCC(=O)NC2CCc3cc(OC)c(OC)c(OC)c3-c3ccc(SC)c(=O)cc32)cc1 (stereo not shown) [Compound 000828, Dimer of N-Deacetylthiocolchicine] | 93.81 | – | – |
| COc1cc2c(c(OC)c1OC)-c1ccc(SC)c(=O)cc1C(NC(=O)CSc1cc(C)c(Cl)cc1Cl)CC2 (stereo not shown) [Compound 000831] | 89.15 | – | – |
| COc1cc2c(c(OC)c1OC)-c1ccc(SC)c(=O)cc1C(NC(=O)CCc1cccnc1)CC2 (stereo not shown) [Compound 000901, N-Deacetyl-N-(3-pyridinepropionyl)thiocolchicine] | 0 | 61.60 | – |
| COc1cc2c(c(OC)c1OC)-c1ccc(SC)c(=O)cc1C(NC(=O)Cn1cc(C)c(=O)[nH]c1=O)CC2 (stereo not shown) [Compound 000905, N-Deacetyl-N-(thymine-1-acetyl)thiocolchicine] | 96.66 | – | – |
| COc1cc2c(c(OC)c1OC)-c1ccc(SC)c(=O)cc1C(NC(=O)c1ccc3c(c1)C(=O)c1ccccc1C3=O)CC2 (stereo not shown) [Compound 000908, N-Deacetyl-N-(anthraquinone-2-carbonyl)thiocolchicine] | 0 | 100 | – |
| COc1cc2c(c(OC)c1OC)-c1ccc(SC)c(=O)cc1C(NC(=O)COc1c(F)c(F)c(F)c(F)c1F)CC2 (stereo not shown) [Compound 000912, N-Deacetyl-N-(2,3,4,5,6-pentafluorophenoxyacetyl)thiocolchicine] | 0.50 | 100 | – |
| COc1cc2c(c(OC)c1OC)-c1ccc(SC)c(=O)cc1C(NC(=O)C(C)ON=C1c3cc([N+](=O)[O-])cc([N+](=O)[O-])c3-c3c1cc([N+](=O)[O-])cc3[N+](=O)[O-])CC2 (stereo not drawn) [Compound 000913, N-Deacetyl-N-[(+)-2-(2,4,5,7-tetranitro-9-fluorenylideneaminooxy)propionyl]thiocolchicine] | 1.00 | 90.91 | – |
| COc1cc2c(c(OC)c1OC)-c1ccc(SC)c(=O)cc1C(NC(=O)C1CCCN1C(=O)OC(C)(C)C)CC2 (stereo not shown) [Compound 000915, N-Deacetyl-N-(1-t-butoxycarbonyl-2-pyrrolidinecarbonyl)thiocolchicine] | 70.12 | – | – |
| COc1cc2c(c(OC)c1OC)-c1ccc(SC)c(=O)cc1C(NC(=O)Cn1cnnn1)CC2 (stereo not shown) [Compound 000918, N-Deacetyl-N-(1H-tetrazole-1-acetyl)thiocolchicine] | 13.61 | – | – |
| COc1cc2c(c(OC)c1OC)-c1ccc(SC)c(=O)cc1[C@@H](NC(=O)c1cn(C)c3nc(C)ccc3c1=O)CC2 [Compound 000920, N-Deacetyl-N-(1,7-dimethylnaphthyridin-4-one-3-carboxy)thiocolchicine] | 95.68 | – | – |
| COc1cc2c(c(OC)c1OC)-c1ccc(SC)c(=O)cc1C(NC(=O)CSc1ccc(Cl)cc1)CC2 (stereo not shown) [Compound 000921, N-Deacetyl-N-[(4-chlorophenylthio)acetyl]thiocoichicine] | 0 | 96.18 | – |
| COc1cc2c(c(OC)c1OC)-c1ccc(SC)c(=O)cc1C(NC(=O)CSc1ccncc1)CC2 (stereo not shown) [Compound 000922, N-Deacetyl-N-(4-pyridylthioacetyl)thiocolchicine] | 0 | 0 | 100 |
| COc1cc2c(c(OC)c1OC)-c1ccc(SC)c(=O)cc1C(NC(=O)CCN1C(=O)c3ccccc3C1=O)CC2 (stereo not shown) [Compound 000925, N-Deacetyl-N-(3-phthalimidopropionyl)thiocolchicine] | 0 | 98.67 | – |
| COc1cc2c(c(OC)c1OC)-c1ccc(SC)c(=O)cc1C(NC(=O)CCC(=O)c1ccc(Br)cc1)CC2 (stereo not shown) [Compound 000926, N-Deacetyl-N-(3-[4-bromobenzoyl]propionyl)thiocolchicine] | 0 | 100 | – |
| CCC(=C(CC)c1ccc(OCC(=O)NC2CCc3cc(OC)c(OC)c(OC)c3-c3ccc(SC)c(=O)cc32)cc1)c1ccc(OCC(=O)NC2CCc3cc(OC)c(OC)c(OC)c3-c3ccc(SC)c(=O)cc32)cc1 (stereo not shown) [Compound 000927, Dimer of N-Deacetylthiocolchicine] | 0 | 100 | – |
| COc1cc2c(c(OC)c1OC)-c1ccc(SC)c(=O)cc1C(NC(=O)N1c3ccccc3Sc3ccccc31)CC2 (stereo not shown) [Compound 000928, N-Deacetyl-N-(phenothiazin-10-ylcarbonyl)thiocolchicine] | 100 | – | – |
| COc1cccc(OCC(=O)NC2CCc3cc(OC)c(OC)c(OC)c3-c3ccc(SC)c(=O)cc32)c1 (stereo not shown) [Compound 001024, N-Deacetyl-N-(3-methoxyphenoxyacetyl)thiocolchicine] | 0 | 98.0 | – |
| COc1cc2c(c(OC)c1OC)-c1ccc(SC)c(=O)cc1C(NC(=O)COc1ccc(C#N)c(F)c1)CC2 (stereo not shown) [Compound 001106, N-Deacetyl-N-(3-fluoro-4-cyanophenoxyacetyl)thiocoichicine] | 0 | 98.51 | – |
| COc1cc2c(c(OC)c1OC)-c1ccc(SC)c(=O)cc1[C@@H](NC(=O)COc1ccc([N+](=O)[O-])c(C(F)(F)F)c1)CC2 [Compound 001107, N-Deacetyl-N-(3-trifluoromethyl-4-nitropbenoxyacetyl)thiocolchicine] | 100 | – | – |
| COc1cc2c(c(OC)c1OC)-c1ccc(SC)c(=O)cc1C(NC(=O)c1ccc(N3C(=O)c4ccccc4C3=O)cc1)CC2 (stereo not shown) [Compound 001114, N-Deacetyl-N-(4-phthalimidobenzoyl)thiocolchicine] | 95.05 | – | – |
| COc1cc2c(c(OC)c1OC)-c1ccc(SC)c(=O)cc1[C@@H](NC(=O)COc1ccc([N+](=O)[O-])cc1)CC2 [Compound 001127, N-Deacetyl-N-(4-nitrophenoxyacetyl)thiocolchicine] | 0 | 75.37 | – |
| COc1cc2c(c(OC)c1OC)-c1ccc(SC)c(=O)cc1C(NC(=O)COc1ccnc3ccccc13)CC2 (stereo not shown) [Compound 001201, N-Deacetyl-N-(quinoline-4-oxyacetyl)thiocolchicine] | 95.07 | – | – |
| COc1cc2c(c(OC)c1OC)-c1ccc(SC)c(=O)cc1[C@@H](NC(=O)COc1cc(C(F)(F)F)cc(C(F)(F)F)c1)CC2 [Compound 001207, N-Deacetyl-N-(3,5-di-trifluoromethylphenoxyacetyl)thiocolchicine] | 3.10 | – | – |
| COc1cc2c(c(OC)c1OC)-c1ccc(SC)c(=O)cc1C(NC(=O)COc1ccc(OC(F)(F)F)cc1)CC2 (stereo not shown) [Compound 001213, N-Deacetyl-N-(4-trifluoromethoxyphenoxyacetyl)thiocolchicine] | 62.56 | – | – |
| COc1cccc(N2CCN(CCC(=O)NC3CCc4cc(OC)c(OC)c(OC)c4-c4ccc(SC)c(=O)cc43)CC2)c1 (stereo not shown) [Compound 001225, N-Deacetyl-N-(4-[3-methoxyphenyl]-piperazinylpropionyl)thiocolchicine] | 0 | 80.5 | – |
| COc1cc2c(c(OC)c1OC)-c1ccc(SC)c(=O)cc1C(NC(=O)CCN1CCN(c3cccc(C(F)(F)F)c3)CC1)CC2 (stereo not shown) [Compound 001227, N-Deacetyl-N-(3-(4-[3-trifluoromethylphenyl]piperazinyl)propionyl)thiocolchicine] | 0 | 100 | – |
| COc1cc2c(c(OC)c1OC)-c1ccc(SC)c(=O)cc1C(NC(=O)COc1c(I)cc(C#N)cc1I)CC2 (stereo not shown) [Compound 001229, N-Deacetyl-N-(2,6-diiodo-4-cyanophenoxyacetyl)thiocolchicine] | 0 | 100 | – |
| COc1cc2c(c(OC)c1OC)-c1ccc(SC)c(=O)cc1[C@@H](NC(C)=O)CC2 [Thiocolchicine, thiocolchicine, reference compound] | 0 | 0 | 100 |
